The subject of one test is EPO. In words: Mouse Serum EPO Assay (mouse ischemic hindlimb study). Type of test: in vivo. Particulars: for EPO response: in vivo response. On the procedure: (§1) Mouse Ischemic Hindlimb Study
(§2) All animal work is conducted in accordance with the Guide for the Care and Use of Laboratory Animals (National Academy of Sciences; Copyright© 1996) and the Institutional Animal Care and Use Committee guidelines at Procter and Gamble Pharmaceuticals. We studied 9-10 week old male C57B1/6 mice from Charles River Laboratory (Portage, Mich.). The mice are orally dosed with vehicle (aqueous carbonate buffer, 50 mM; pH 9.0) or compound 1 in vehicle at 50 mg/kg or 100 mg/kg. The animals are dosed three times: day 1 at 8 am and 5 pm, day 2 at 8 am. One hour after the first dose, unilateral arterial ligation is performed under anesthesia using isoflurane. The femoral artery is ligated proximal to the origin of the popliteal artery. The contralateral limb underwent a sham surgical procedure. Ligation is performed in an alternating fashion between right and left hindlimbs. Two hours after 8 am dosing on day 2, we obtained blood by ventricular stick while the mice are anesthetized with isoflurane. Serum samples for EPO analysis are obtained using gel clot serum separation tubes. Heart, liver, and gastrocnemius muscles are harvested, snap-frozen in liquid nitrogen, and stored in −80° C. until use.
The mouse serum EPO is detected using Mouse Quantikine Erythropoietin ELISA kit from R&D Systems according to manufacturer's instructions.

The target of test [1] is Full-length recombinant human EGLN-3 (His-MBP-TVMV-EGLN-3 fusion) (Homo sapiens (Human), UniProt Q9H6Z9). In words: EGLN-3 enzyme activity assay (MALDI-TOF MS). Type of test: biochemical. Particulars: read-out: EGLIN3 IC50. On the procedure:
(§3) Hydroxylated peptide product is identified from substrate by the gain of 16 Da. Data defined as percent conversion of substrate to product is analyzed in GraphPad Prism 4 to calculate IC50 values.

Test [2] deals with Recombinant human EGLN-1-179/426 (Homo sapiens (Human), UniProt Q9GZT9). In words: EGLN-1 Activity Assay (MALDI-TOF MS). The following applies: read-out: EGLIN1 IC50. Type of test: biochemical. The protocol:
as §3

Another test has as its system HIF-1α. In words: Mouse Tissue HIF Western Blot Analysis. The format is in vivo. Particulars: FIG. 1; immunoblot analysis of nuclear extracts. On the procedure:
as §1, §2
Mouse Tissue HIF Western Blot Analysis
Tissues from mice stored at −80° C. are powdered with mortar and pestle chilled with liquid nitrogen. […]
(Immunoblotting shows a protein as a band on a membrane.)

Full-length recombinant human EGLN-3 (His-MBP-TVMV-EGLN-3 fusion), sequence (Q9H6Z9 whole entry, the tested form may be a part): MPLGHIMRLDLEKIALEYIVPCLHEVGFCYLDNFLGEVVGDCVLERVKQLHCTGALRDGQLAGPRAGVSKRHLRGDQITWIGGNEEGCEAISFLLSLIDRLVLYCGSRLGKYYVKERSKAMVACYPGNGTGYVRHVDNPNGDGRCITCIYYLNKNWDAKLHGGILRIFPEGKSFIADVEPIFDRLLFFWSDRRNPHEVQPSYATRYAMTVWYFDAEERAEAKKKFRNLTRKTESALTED
Recombinant human EGLN-1-179/426, sequence (Q9GZT9 179-426): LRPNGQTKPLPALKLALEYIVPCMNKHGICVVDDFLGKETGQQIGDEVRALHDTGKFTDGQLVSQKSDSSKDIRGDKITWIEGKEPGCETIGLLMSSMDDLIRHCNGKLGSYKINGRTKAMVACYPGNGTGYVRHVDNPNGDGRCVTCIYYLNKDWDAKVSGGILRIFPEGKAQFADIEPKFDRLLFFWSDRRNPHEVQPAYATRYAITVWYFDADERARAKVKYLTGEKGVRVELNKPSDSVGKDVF

Usually IC50 stands for the concentration needed to halve the response being measured. `N#Cc1ccc(-c2cnc(C(=O)NCC(=O)O)c(O)c2)cc1` [{[5-(4-Cyanophenyl)-3-hydroxypyridine-2-carbonyl]amino}-acetic acid]: the EPO response result in the test with EPO was “yes”. Besides, the IC50 in test [1] stood at 0.56 µM.

Take `O=C(O)CNC(=O)c1ncc(-c2ccccc2Cl)cc1O` [{[5-(2-Chlorophenyl)-3-hydroxypyridine-2-carbonyl]amino}-acetic acid]: the EPO response result in the test with EPO was “yes”. Besides, the IC50 in test [1] turned out to be 0.39 µM.

Consider `Cc1ccc(Cl)cc1-c1cnc(C(=O)NCC(=O)O)c(O)c1` [{[5-(2-Methyl-5-chlorophenyl)-3-hydroxypyridine-2-carbonyl]amino}-acetic acid], for which the IC50 in test [2] turned out to be 2.5 µM.

Take `O=C(O)CNC(=O)c1ncc(-c2cccc(-c3nn[nH]n3)c2)cc1O` [({3-Hydroxy-5-[3-(2H-tetrazol-5-yl)phenyl]-pyridine-2-carbonyl}-amino)-acetic acid]: in test [2], the IC50 came to 0.4 µM.

Consider `N#Cc1cccc(-c2cnc(C(=O)NCC(=O)O)c(O)c2)c1` [{[5-(3-Cyanophenyl)-3-hydroxypyridine-2-carbonyl]amino}-acetic acid], for which, in test [2], the IC50 amounted to 0.19 µM.

Consider `Cc1ccc(-c2cnc(C(=O)NCC(=O)O)c(O)c2)cc1` [[(3-Hydroxy-5-(4-methylphenyl)pyridine-2-carbonyl)amino]-acetic acid], for which, in the test on EPO, the EPO response entry was “yes”. For the same compound, in test [1], the IC50 was found to be 0.18 µM.

For `COC(=O)CNC(=O)c1ncc(-c2cccc(C(=O)N3CCCC3)c2)cc1O` [({3-Hydroxy-5-[3-(pyrrolidine-1-carbonyl)-phenyl]-pyridine-2-carbonyl}-amino)-acetic acid methyl ester], in test [2], the IC50 came to 2.5 µM.

For the compound `CC(C)Oc1ccc(-c2cnc(C(=O)NCC(=O)O)c(O)c2)cc1` [{[5-(4-Isopropoxyphenyl)-3-hydroxypyridine-2-carbonyl]amino}-acetic acid], the half-inhibitory concentration (IC50) in test [2] stood at 1.6 µM.

On to `Cc1ccc(-c2ccc(C(=O)NCC(=O)O)c(O)c2)cc1` [[(3-Hydroxy-4′-methyl-biphenyl-4-carbonyl)-amino]-acetic acid], for which, in test [2], the IC50 amounted to 20 µM. For the same compound, the EPO response result in the test with EPO is listed as “yes”.

Turning to `COC(=O)CNC(=O)c1ncc(-c2ccc(C)cc2)cc1O` [[(3-Hydroxy-5-(4-methylphenyl)-pyridine-2-carbonyl)-amino]-acetic acid methyl ester], the figures for the IC50 in test [2] and in test [1] were 4.1 µM and 52.3 µM, respectively.

For `CC(C)c1ccc(-c2cnc(C(=O)NCC(=O)O)c(O)c2)cc1` [{[5-(4-Isopropylphenyl)-3-hydroxypyridine-2-carbonyl]amino}-acetic acid], in test [2], the IC50 was 0.44 µM.

`O=C(O)CNC(=O)c1ncc(-c2cccc(C(=O)N3CCCC3)c2)cc1O` [({3-Hydroxy-5-[3-(pyrrolidine-1-carbonyl)phenyl]-pyridine-2-carbonyl}amino)-acetic acid]: the IC50 in test [2] worked out at 0.3 µM.

On to `COC(=O)CNC(=O)c1ncc(-c2cccc(Cl)c2)cc1O` [{[5-(3-chloro-phenyl)-3-hydroxy-pyridine-2-carbonyl]-amino}-acetic acid methyl ester], for which the IC50 came to 2.8 µM in test [2] and 21.4 µM in test [1]. Moreover, the EPO response entry in the test with EPO is reported as “yes”.

Take “{[5-(4-Chlorophenyl)-3-hydroxypyridine-2-carbonyl]amino}-acetic acid”: in the test with EPO, the EPO response entry was “yes”. In addition, in test [1], the IC50 turned out to be 0.083 µM.

Consider `COC(=O)CNC(=O)c1ncc(-c2cccc(C(N)=O)c2)cc1O` [{[5-(3-Carbamoyl-phenyl)-3-hydroxy-pyridine-2-carbonyl]-amino}-acetic acid methyl ester], for which the IC50 in test [2] turned out to be 11.2 µM.

Turning to `COC(=O)CNC(=O)c1ncc(-c2ccccc2Cl)cc1O` [{[5-(2-Chloro-phenyl)-3-hydroxy-pyridine-2-carbonyl]-amino}-acetic acid methyl ester], in the test on EPO, the EPO response entry was “yes”. Besides, in test [1], the IC50 stood at 37.5 µM.

Turning to `COC(=O)CNC(=O)c1ncc(-c2ccc(Cl)cc2)cc1O` [{[5-(4-Chloro-phenyl)-3-hydroxy-pyridine-2-carbonyl]-amino}-acetic acid methyl ester], the IC50 in test [2] was 3.7 µM.

Take `O=C(O)CNC(=O)c1ncc(-c2cccc(Cl)c2)cc1O` [{[5-(3-Chlorophenyl)-3-hydroxypyridine-2-carbonyl]amino}-acetic acid]: the “stabilization of HIF-1α in mouse liver” value in the test with HIF-1α is listed as “stabilization”. Also, the “erythropoietin level versus vehicle in mouse serum” value with EPO (FIG. 2, after oral dosing) was “elevated”. Also, the EPO response entry in the test with EPO is “yes”.

The record behind these values is patent US8598210B2, “Prolyl hydroxylase inhibitors and methods of use” (Akebia Therapeutics Inc., priority 2006, dated 2013).
